# Measurements from patent US7728032B2, “Phenoxymethylalkyne inhibitors of LTA4H for treating inflammation” (deCODE genetics ehf, priority 2006, dated 2010).
# Where a name gives a salt, the structure may show the parent alone. Read-outs that look alike come from different tables or passages of the source.
# Legend:
# [1] = molecular target: T1, recombinant human LTA4 hydrolase (Homo sapiens, UniProt P09960); experiment: In vitro assay testing inhibitory activity against purified recombinant human LTA4 hydrolase; format: biochemical; conditions: 200 nM recombinant enzyme, 2 μM LTA4, 120 sec, LTB4 formed measured by LC-MS/MS
# T1 construct: A human LTA4 hydrolase full-length cDNA clone (NM_000895) was purchased from OriGene Technologies; 6xHis (own knowledge: pDEST17 adds an N-terminal His tag); made in house; host or cells: Escherichia coli BL21-AI
# T1 sequence (P09960 1-611): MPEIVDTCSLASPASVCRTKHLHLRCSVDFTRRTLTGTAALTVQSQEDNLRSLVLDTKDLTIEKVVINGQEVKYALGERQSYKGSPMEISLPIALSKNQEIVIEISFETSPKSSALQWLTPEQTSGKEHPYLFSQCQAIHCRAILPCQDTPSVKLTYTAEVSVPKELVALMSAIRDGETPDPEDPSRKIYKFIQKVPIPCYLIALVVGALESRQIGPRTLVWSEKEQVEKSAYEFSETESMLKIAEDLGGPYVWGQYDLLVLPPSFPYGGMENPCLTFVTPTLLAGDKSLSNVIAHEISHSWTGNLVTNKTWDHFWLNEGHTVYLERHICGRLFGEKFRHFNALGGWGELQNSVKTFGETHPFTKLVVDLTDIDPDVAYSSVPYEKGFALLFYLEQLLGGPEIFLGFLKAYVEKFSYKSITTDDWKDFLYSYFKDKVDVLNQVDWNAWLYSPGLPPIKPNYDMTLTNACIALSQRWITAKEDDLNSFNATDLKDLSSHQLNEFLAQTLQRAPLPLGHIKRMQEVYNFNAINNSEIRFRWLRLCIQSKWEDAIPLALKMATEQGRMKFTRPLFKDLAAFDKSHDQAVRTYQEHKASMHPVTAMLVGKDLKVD
# From the text: (1) In vitro assay testing inhibitory activity against purified recombinant human LTA4 hydroase:
# A human LTA4 hydrolase full-length cDNA clone (NM_000895) was purchased from OriGene Technologies (Rockville, Md.). The gene was amplified by polymerase chain reaction and transferred via pDONR201 into the bacterial expression vector pDEST17 by recombination (both plasmids from Invitrogen, Carlsbad, Calif.). The resulting construct was transformed into Escherichia coli BL21-AI (Invitrogen), and expression was induced by chemical induction with arabinose. The recombinant enzyme was purified by chromatography on a FPLC system (Amersham Biosciences, Uppsala, Sweden) using immobilized metal affinity chromatography (Ni-NTA Superflow, Qiagen, Hilden, Germany) and anion exchange chromatography (MonoQ HR 10/10, Amersham Biosciences).
# The compounds of the invention were incubated in a series of dilutions with 200 nM of recombinant enzyme in assay buffer (100 mM Tris-HCl, 100 mM NaCl, 5 mg/ml fatty-acid free BSA, 10% DMSO, pH 8.0) for 10 min at room temperature to allow binding between LTA4 hydrolase and the inhibitors. LTA4 was prepared by alkaline hydrolysis of LTA4 methyl ester (Biomol, Plymouth Meeting, Pa., or Cayman Chemicals, Ann Arbor, Mich.). A solution of 10 μg of the ester was dried under a nitrogen stream and redissolved in 60 μl of a solution of 80% aceton and 20% 0.25 M NaOH. After incubation for 40 min at room temperature the resulting approximately 500 μM tock of LTA4 was kept at −80° C. for no more than a few days prior to use.
# Immediately before the assay, LTA4 was diluted to a concentration of 10 μM in assay buffer (without DMSO) and added to the reaction mixture to a final concentration of 2 μM to initiate the enzyme reaction. After incubation for 120 sec at room temperature, the reaction was stopped by adding 2 volumes of chilled quenching buffer, containing acetonitril with 1% acetic acid and 225 nM LTB4-d4 (Biomol). The samples were then kept at 4° C. over night to complete protein precipitation and centrifuged for 15 min at 1800 g. LTB4 formed was measured by LC-MS/MS using LTB4-d4 as an internal standard and an external LTB4 standard (Biomol) as reference. Briefly, the analyte was separated from LTB4 isomers formed by spontaneous hydrolysis of LTA4 using isocratic elution (modified protocol from Mueller et al. (1996), J. Biol. Chem. 271, 24345-24348) on a HPLC system (Waters, Milford, Mass.) and analyzed on a tandem quadrupole mass spectrometer (Waters). MRM transitions followed on 2 channels were 335.2>195.3 (LTB4) and 339.2>197.3 (LTB4-d4). Based on the amounts of LTB4 found at each inhibitor concentration, a dose-response curve was fitted to the data and an IC50 value was calculated.
# spontaneous colitis = conditions: eight weeks of treatment, primate model; cited from earlier work
# [2] = system: ionophore-induced LTB4 production; conditions: oral administration, mouse blood ex vivo; cited from earlier work
# [3] = system: ionophore-induced LTB4 production; conditions: oral administration, rat peritoneum in vivo; cited from earlier work
IC50 [1] [µM],Molecule,also measured
5 to 20,"Brc1ccc(C#CCOc2ccc(OC[C@H]3CCCN3)cc2)cc1 [Example 4, 2-{4-[3-(4-Bromo-phenyl)-prop-2-ynyloxy]-phenoxymethyl}-pyrrolidine hydrochloride]",
< 5,"C(#Cc1ccccc1)COc1ccc(OC[C@H]2CCCN2)cc1 [Example 2, 2-[4-(3-Phenyl-prop-2-ynyloxy)-phenoxymethyl]-pyrrolidine]",

# The next lines start with the molecule.
Molecule,IC50 [1] [µM],also measured
"CC#CCOc1ccc(OCCN2CCCCC2)cc1 [Example 6, 1-[2-(4-But-2-ynyloxy-phenoxy)-ethyl]-piperidine]",5 to 20,
CN(CCCOc1ccc(Cc2ccccc2)cc1)CCC(=O)O.Cl [SC57461],,colitis symptoms (spontaneous colitis): significantly improved; inhibition of ionophore-induced LTB4 production [2]: inhibition; inhibition of ionophore-induced LTB4 production [3]: inhibition
(4-{3-[4-(Pyrrolidin-2-ylmethoxy)-phenoxy]-prop-1-ynyl}-phenyl)-methanol [Example 3],< 5,
"C#CCOc1ccc(OC[C@H]2CCCN2)cc1 [Example 1, (R)-2-(4-Prop-2-ynyloxy-phenoxymethyl)-pyrrolidine hydrochloride]",5 to 20,
